Reference: PMC10214526, “Semisynthetic LC3 Probes for Autophagy Pathways Reveal a Noncanonical LC3 Interacting Region Motif Crucial for the Enzymatic Activity of Human ATG3” (ACS Central Science, 2023)

What was measured:
[1] = system: ATG3; assay: Reaction (cross-linking) of Ubl activity-based probes with recombinant ATG3 and variants; type: biochemical, human; details: probe 15 μM, SDS-PAGE
Method: (§1) Figure 1 Modification of ATG3 with GABARAP ABPs depends on LIR^ATG3. a. Characterization of GABARAP activity-based probes, 1 and 2, obtained by hydrazide-acylation. Deconvoluted mass-spectrum (ESI) of GABARAP(ΔG116)–NHNH α-chloroacetyl 1. Expected mass 13707 Da. Deconvoluted mass-spectrum (ESI) of GABARAP(ΔG116)–NHNH methyl-fumarate 2. Expected mass 13743 Da. b. […] The reaction was allowed to proceed for 1 h and was analyzed by SDS-PAGE and Coomassie Blue staining. c. ColabFold-predicted structure of the protein-complex of ATG3 and GABARAP. Side-chain atoms are shown for the predicted LIR motif in ATG3 (90–112). d. Reaction of 2 (15 μM) with ATG3 variants C1, C0, and ΔLIR (15 μM). ATG3 C1 contains only active-site cysteine C264. ATG3 C0 contains no cysteines. ATG3 ΔLIR lacks amino acids 95–111. Reaction was allowed to proceed for 1 h and was analyzed by SDS-PAGE and Coomassie Blue staining. Full-gel images for b and d are available in the Supplementary Information.
We were intrigued by the cross-linking efficiency of 2 with ATG3 and sought to investigate the origin of this efficiency by generating a C1 variant of ATG3 that only contains the catalytic cysteine 264 and a corresponding C0 variant containing no cysteines. […] In general, the affinity of E2s for their cognate Ubls are quite low, as the thioester transfer from the E1 to the E2 enzyme is facilitated by additional interactions from the UFD domain of the E1 enzyme.[23] […]
Upon completion the solution was dialyzed against 25 mM
HEPES, 200 mM NaCl pH 7.2 at 4 °C. Cleaved intein was removed using gravity Ni-NTA purification.
The flow-through was collected and combined with resin washes. The combined fractions were dialyzed and further purified using ion exchange.
3.3. Generation of GABARAP and LC3A hydrazides from SUMO-GABARAP/LC3A-Mxe GyrA-
SUMO-GABARAP/LC3A-Mxe GyrA-His6 fusion after Ni-NTA purification was dialyzed against intein cleavage buffer (25 mM HEPES, 500 mM NaCl, 1 mM EDTA pH 7.2 at 4 °C). After dialysis hydrazine monohydrate (75 mM) and MESNa (10 mM) was added and the pH adjusted to 7.8. The solution was allowed to stand at room temperature and monitored using LC-MS analysis. Upon completion the solution was dialyzed against 25 mM HEPES, 500 mM NaCl pH 7.2 at 4 °C. SENP1 (1 wt%) was added to cleave the SUMO-tag. The cleaved intein was removed using gravity Ni-NTA purification. […]
dialyzed and further purified using cation exchange using a buffer 25 mM Tris pH 8.0 and a gradient of […] in the same buffer over 25 column volumes. The product fractions were pooled, concentrated, and stored at –80 °C until further use.
3.4. Synthesis of symmetrical anhydrides
The carboxylic acid was dissolved in CH2Cl2 (300 mM) and dicyclohexylcarbodiimide (0.5 eqiv) was added in one portion. The reaction was stirred under N2 for 18 h. The suspension was filtered and concentrated to ~10% of the initial volume. The solution was placed at 4 °C for 1 h and filtered again.
The filtrate was concentrated to obtain the symmetrical anhydride which was used without further purification. Anhydrides can be stored at –20 °C for weeks.
3.5. Reaction of modified Ubl probes with E2s
Ubl probes (15 μM) were mixed with E2s (15 μM) in PBS. The mixture was incubated at 37 °C in a water bath for 0.5-3 h. The reaction was quenched by addition of 2x Laemmli buffer and boiled at 95 °C for 5 min. Samples were resolved by SDS-PAGE (8-16%, Bio-Rad) and visualized by […]
Coomassie staining. […]

[2] = system: Ube2K; assay: Reaction of Ubl probes with ubiquitin E2 Ube2K; type: biochemical; details: probe 15 μM, Ube2K 15 μM, 1 h, SDS-PAGE
Method: as §1, with “Full-gel images for b and d are available in the Supplementary Information.” left out
Farnung et al. Supplementary Information and monitored using LC-MS analysis. […]
SUMO-GABARAP/LC3A-Mxe GyrA-His6 fusion after Ni-NTA purification was dialyzed against intein cleavage buffer (25 mM HEPES, 500 mM NaCl, 1 mM EDTA pH 7.2 at 4 °C). […] The solution was allowed to stand at room temperature and monitored using LC-MS analysis. […]
Ubl probes (15 μM) were mixed with E2s (15 μM) in PBS. […] If required, gel bands were quantified by gel densitometry using ImageLab (Bio- […]

GABARAP(ΔG116)–NHNH methyl-fumarate [compound 2]
Reaction with ATG3 wt ([1]; ATG3 15 μM, 1 h, Coomassie Blue): reacted with ATG3 efficiently leading to the formation of multiple ATG3–GABARAP bands | Reaction with ATG3 C0 ([1]; ATG3 C0 (no cysteines) 15 μM): no reaction was observed | Reaction with ATG3 C1 ([1]; ATG3 C1 (only active-site C264) 15 μM): excellent reactivity | Reaction with ATG3 ΔLIR ([1]; ATG3 C1 ΔLIR (Δ95–111) 15 μM): no complex formation | Reaction with ATG3 C264A ([1]; catalytically inactive ATG3 C264A 15 μM): loss of one ATG3–GABARAP band but did not abrogate additional bands for the complex | Reaction with Ube2K [2]: did not react
